According to patent publication US20250235545A1, “POLYPEPTIDE CONJUGATE AND USE THEREOF” (SHANGHAI CHIXI BIOMEDICAL TECHNOLOGY CO., LTD, priority 2024, published 2025):
Values after ≈ are worked out from the molar mass of the structure shown. Read-outs that look alike come from different tables or passages of the source.

How the values were obtained:
[1] = test system: colo320 (colorectal cancer tissue); assay: cells; format: cell-based; conditions: CCK8, 48 h, Table 6
Procedure: (§1) Different types of cells were cultured with complete media (RPMI1640 (DMEM high sugar medium)+10% fetal bovine serum+1×P/S+sodium pyruvate 1 mM solution) in an incubator at 37° C. and 5% CO2 until the cells grew to a sufficient number, and the cells were collected, centrifuged at 1,000 g for 5 min, resuspended with an appropriate volume of a 10% RMPI1640 (DMEM high sugar medium) medium and adjusted to an appropriate density. In a 96-well culture plate, 100 μL of cell culture fluid containing different concentrations of drugs was added, control wells (0.1% DMSO) with only corresponding drug solvents without drugs, as well as blank wells (Blank) with only the medium but without cells were set, and three parallel wells were set in each group. After that, the cells after cell counting were inoculated onto 96-well culture plates, with 100 μL of cell suspension per well, and an inoculation concentration of the cells was 5,000 cells (100 μL)/well. The plates were then cultured in a CO2 (5%) incubator at 37° C. for 48 h. After 48 h, 10 μL of a cell proliferation staining reagent (CCK8) was added to each well, the plates were incubated in a cell incubator for around 2 h, and an absorbance at 450 nm was detected.
(§2) Cell survival rates and median inhibitory concentrations (IC50) of the drugs on the cells were calculated.

[2] = test system: SKBR3 (breast cancer tissue); assay: cells; format: cell-based; conditions: CCK8, 48 h; for IC50: Homo sapiens, SK-BR-3
Procedure: as §1, with “serum+1XP/S+sodium” for “serum+1×P/S+sodium”, “counted.” for “adjusted to an appropriate density.”
(§3) Cell survival rates and median inhibitory concentrations of the drugs on the cells were calculated.
as §1, §2

SJSA-1 (sarcoma tissue) = assay: cells; format: cell-based; conditions: CCK8, 48 h; for IC50: Homo sapiens, SJSA-1
Procedure: as §1, with “serum+1XP/S+sodium” for “serum+1×P/S+sodium”, “counted.” for “adjusted to an appropriate density.”
as §3, §1, §2

A2780 (ovarian cancer) = assay: cells; format: cell-based; conditions: CCK8, 48 h; for IC50: Homo sapiens, A2780
Procedure: as §1, with “serum+1XP/S+sodium” for “serum+1×P/S+sodium”, “counted.” for “adjusted to an appropriate density.”
as §3, §1, §2

[3] = test system: A549 (non-small cell lung cancer); assay: cells; format: cell-based; conditions: CCK8, 48 h; for IC50: Homo sapiens, A549
Procedure: as §1, with “serum+1XP/S+sodium” for “serum+1×P/S+sodium”, “counted.” for “adjusted to an appropriate density.”
as §3, §1, §2

[4] = test system: sarcoma SJSA-1 tumor model; conditions: 5 mg/kg once a week for three weeks
Procedure: Test objective: To investigate the antitumor efficacy of the above compounds in an animal tumor model of sarcoma SJSA-1.
(§4) Test drug: Polypeptide conjugate, Irinotecan, Belotecan and normal saline control group.
(§5) Test animals: 6-8 weeks old BALB/c mice, all female.
(§6) SJSA-1 cells were purchased from ATCC and cultured in a DMEM medium containing 10% fetal bovine serum at 37° C. in 5% CO2. Passaging was performed every three days, and cells within 15 generations were used. 2×10^7 corresponding cells were injected into right chests of nude mice subcutaneously. After a volume of the tumors reached at least 100 mm^3, the mice were grouped randomly, with three mice in each group. Then treatment was started, and the day when the treatment was started was the first day. […] The control group was administered with normal saline. Administration was performed once a week for three weeks.
as §6

[5] = test system: colo320 colorectal cancer tumor model
Procedure: Test objective: To investigate the antitumor efficacy of the above compounds in an animal tumor model of colo320 colorectal cancer.
as §4, §5
as §6, with “Passaging” for “SJSA-1 cells were purchased from ATCC and cultured in a DMEM medium containing 10% fetal bovine serum at 37° C. in 5% CO2. Passaging”, “used. 7.5×10^6” for “used. 2×10^7”, “least 120” for “least 100”, “for four” for “for three”

[6] = MTD determination in mice (Examples 27, 36, 44); format: in vivo; conditions: mice, monitored for 14 d
From the text: Test animals: 6-8 weeks old mice, all female; mice were grouped randomly, with six mice in each group, administered with drugs at different concentration gradients separately and monitored for 14 d. A mouse was euthanized at a loss of 20% of its initial weight and deemed to have died of poisoning.

[7] = 5 mg/kg once a week for four weeks, Table 3
[8] = 5 mg/kg once a week for four weeks, Table 8
[9] = Table 13 (Example 42), dose 5 mg/kg, once a week for four weeks, BALB/c mice
[10] = Table 14 (Example 43), dose 5 mg/kg, once a week for four weeks, BALB/c mice

| SMILES | IC50 Colorectal cancer tissue (colo320) [1] [ng/mL] | IC50 SKBR3 (breast cancer tissue) ([2]; Table 1) [ng/mL] | IC50 Breast cancer tissue (SKBR3) ([2]; Table 6) [ng/mL] | IC50 SJSA-1 (sarcoma tissue) (SJSA-1 (sarcoma tissue); Table 1) [ng/mL] | IC50 Sarcoma tissue (SJSA-1) (SJSA-1 (sarcoma tissue); Table 6) [ng/mL] | IC50 A2780 (ovarian cancer) (A2780 (ovarian cancer); Table 1) [ng/mL] | IC50 Ovarian cancer tissue (A2780) (A2780 (ovarian cancer); Table 6) [ng/mL] | IC50 A549 (non-small cell lung cancer) ([3]; Table 1) [ng/mL] | Mouse weight (%) ([4]; Table 2) | SJSA-1 (sarcoma tissue) mean tumor volume (mm^3) ([4]; Table 2) | SJSA-1 (sarcoma) Growth rate (%) ([4]; Table 2) | Mouse weight (%) ([4]; Table 7) | SJSA-1 (sarcoma tissue) growth rate (%) ([4]; Table 7) | SJSA-1 (sarcoma tissue) mean tumor volume (mm^3) ([4]; Table 7) | Mouse weight (%) [5, 7] | colo320 (colorectal cancer cell) growth rate (%) [5, 7] [%] | colo320 (colorectal cancer cell) mean tumor volume (mm^3) [5, 7] [mm^3] | Mouse weight (%) [5, 8] | colo320 (colorectal cancer cell) growth rate (%) [5, 8] [%] | colo320 (colorectal cancer cell) mean tumor volume (mm^3) [5, 8] [mm^3] | further results |
| --- | --- | --- | --- | --- | --- | --- | --- | --- | --- | --- | --- | --- | --- | --- | --- | --- | --- | --- | --- | --- | --- |
| CC[C@@]1(O)C(=O)OCc2c1cc1n(c2=O)Cc2c-1nc1ccccc1c2CCNC1CCCC1 [D8] | 42 (≈ 0.0914 µM) | 47 (≈ 0.102 µM) | 47 (≈ 0.102 µM) | 35 (≈ 0.0762 µM) | 35 (≈ 0.0762 µM) | 15 (≈ 0.0326 µM) | 15 (≈ 0.0326 µM) | 16 (≈ 0.0348 µM) | +12% | 1497.5 | 1295.77 | +12% | 1295.77 | 1497.5 | −6% | 1082.65 | 1199.1 | −6% | 1082.65 | 1199.1 | IC50 Non-small cell lung cancer tissue (A549) ([3]; Table 6): 16 ng/mL (≈ 0.0348 µM); MTD ([6]; Table 4): 25 mg/kg; MTD ([6]; Table 9): 25 mg/kg |
| CC[C@@]1(O)C(=O)OCc2c1cc1n(c2=O)Cc2c-1nc1ccccc1c2CCNC(C)C [Belotecan, reference compound] | – | – | – | – | – | – | – | – | −9% | 1253.2 | 1084.38 | −9% | 1084.38 | 1253.2 | −9% | 869.93 | 963.5 | −9% | 869.93 | 963.5 | IC50 ([1]; Homo sapiens, COLO 320): 14 ng/mL (≈ 0.0323 µM); IC50 ([2]; Table 1, read-out: IC50 SKBR3 (breast cancer tissue)): 9.8 ng/mL (≈ 0.0226 µM); IC50 ([2]; Table 6, read-out: IC50 Breast cancer tissue (SKBR3)): 9.8 ng/mL (≈ 0.0226 µM); IC50 (SJSA-1 (sarcoma tissue); Table 1, read-out: IC50 SJSA-1 (sarcoma tissue)): 2.1 ng/mL (≈ 0.00484 µM); IC50 (SJSA-1 (sarcoma tissue); Table 6, read-out: IC50 Sarcoma tissue (SJSA-1)): 2.1 ng/mL (≈ 0.00484 µM); IC50 (A2780 (ovarian cancer); Table 1, read-out: IC50 A2780 (ovarian cancer)): 4.4 ng/mL (≈ 0.0101 µM); IC50 (A2780 (ovarian cancer); Table 6, read-out: IC50 Ovarian cancer tissue (A2780)): 4.4 ng/mL (≈ 0.0101 µM); IC50 ([3]; Table 1, read-out: IC50 A549 (non-small cell lung cancer)): 6.6 ng/mL (≈ 0.0152 µM); IC50 ([3]; Table 6, read-out: IC50 Non-small cell lung cancer tissue (A549)): 6.6 ng/mL (≈ 0.0152 µM); Mouse weight (%) [5, 9]: −9%; colo320 (colorectal cancer cell) growth rate (%) [5, 9]: 869.93%; colo320 (colorectal cancer cell) mean tumor volume (mm^3) [5, 9]: 963.5 mm^3; Mouse weight (%) [5, 10]: −9%; colo320 (colorectal cancer cell) growth rate (%) [5, 10]: 869.93%; colo320 (colorectal cancer cell) mean tumor volume (mm^3) [5, 10]: 963.5 mm^3; MTD ([6]; female, mouse, in vivo, Table 15 (Example 44), six per group, read-out: MTD): 15 mg/kg; MTD ([6]; female, mouse, in vivo, Table 4, read-out: MTD): 15 mg/kg; MTD ([6]; female, mouse, in vivo, Table 9, read-out: MTD): 15 mg/kg |
| CCCNCCc1c2c(nc3ccccc13)-c1cc3c(c(=O)n1C2)COC(=O)[C@]3(O)CC [D3] | 40 (≈ 0.0923 µM) | 49 (≈ 0.113 µM) | 49 (≈ 0.113 µM) | 29 (≈ 0.0669 µM) | 29 (≈ 0.0669 µM) | 21 (≈ 0.0484 µM) | 21 (≈ 0.0484 µM) | 26 (≈ 0.06 µM) | −5% | 1378.4 | 1192.71 | −5% | 1192.71 | 1378.4 | +7% | 872.19 | 966 | +7% | 872.19 | 966 | IC50 Non-small cell lung cancer tissue (A549) ([3]; Table 6): 26 ng/mL (≈ 0.06 µM); MTD ([6]; Table 4): 25 mg/kg; MTD ([6]; Table 9): 25 mg/kg |
| CC[C@@]1(O)C(=O)OCc2c1cc1n(c2=O)Cc2c-1nc1ccccc1c2CCNC1CC1 [D6] | 4.8 (≈ 0.0111 µM) | 3.8 (≈ 0.00881 µM) | 3.8 (≈ 0.00881 µM) | 1.8 (≈ 0.00417 µM) | 1.8 (≈ 0.00417 µM) | 2.9 (≈ 0.00672 µM) | 2.9 (≈ 0.00672 µM) | 2.5 (≈ 0.00579 µM) | +4% | 961.3 | 828.71 | +4% | 831.80 | 961.3 | −4% | 715.73 | 787.3 | −4% | 710.84 | 787.3 | IC50 Non-small cell lung cancer tissue (A549) ([3]; Table 6): 2.5 ng/mL (≈ 0.00579 µM); MTD ([6]; Table 4): 10 mg/kg; MTD ([6]; Table 9): 10 mg/kg |
| CC[C@@]1(O)C(=O)OCc2c1cc1n(c2=O)Cc2c-1nc1ccccc1c2CCNC1CCC1 [D7] | 17 (≈ 0.0382 µM) | 16 (≈ 0.0359 µM) | 16 (≈ 0.0359 µM) | 8.4 (≈ 0.0189 µM) | 8.4 (≈ 0.0189 µM) | 4.3 (≈ 0.00965 µM) | 4.3 (≈ 0.00965 µM) | 7.4 (≈ 0.0166 µM) | −7% | 1369.5 | 1185.01 | −7% | 1185.01 | 1369.5 | −8% | 1136.64 | 1258.9 | −8% | 1136.64 | 1258.9 | IC50 Non-small cell lung cancer tissue (A549) ([3]; Table 6): 7.4 ng/mL (≈ 0.0166 µM); MTD ([6]; Table 4): 15 mg/kg; MTD ([6]; Table 9): 15 mg/kg |
